Measured values reported in PubChem BioAssay AID2060344 (Molecular Pharmacology Branch, DTP, NCI, 2025).
Several values for one entry are separate records, joined by “and”; a condition that tells them apart may be missing. Equal values may be shown once. Each block holds one compound with its values, some of them ahead of it.

Tested on: SK-MEL-2 multi-cell spheroids, viability
Assay: Anticancer human tumor SK-MEL-2 cell line growth inhibition [TAK];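 further: spheroids exposed to drugs for seven days before readout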;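 on viability, T/C: percent of DMSO vehicle control luminescence so 100% = untreated viability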
Conditions: for viability, T/C: stronger effect = lower value
Description: Combinatorial screen of targeted agents with TAK-243 and ipatasertib in multi-cell type tumor spheroids
A high-throughput screen of multi-cell type tumor spheroids was designed to identify active combinations of targeted small molecules and TAK-243 or ipatasertib. Complex spheroids include a stromal component modeled by human endothelial cells (HUVEC) and fibroblasts modeled by human mesenchymal stem cells (MSCs). The concentration ranges selected for each drug and investigational agent were based upon clinically achievable concentrations if the clinical Cmax of the agent was known.
Compounds. The drugs and investigational agents: TAK-243 (785004), ipatasertib (767898), everolimus (733504), selumetinib (741078), bortezomib (756655), trametinib (758246), ixazomib (758254), vemurafenib (761431), dabrafenib (764134), sapanisertib (764658), alpelisib (765974), and copanlisib (816437), were obtained from the National Cancer Institute (NCI) Developmental Therapeutics Program Chemical Repository. The FDA-approved anticancer drug set is available from the NCI Developmental Therapeutics Program. […] The stock solutions were prepared in dimethyl sulfoxide (DMSO, Sigma-Aldrich, St. Louis, MO, cat. D2650) at 800-fold the tested concentration and stored at -70 degrees C prior to their use. All drugs and investigational agents were tested over a range starting from a high concentration at or near the clinical Cmax and decreasing in half-log increments. If the clinical Cmax for an agent had not been determined, the highest concentration tested was 10 microM.
NCI60 Cell Culture. NCI60 cell lines were obtained from the NCI Developmental Therapeutics Program Tumor Repository. For each lot of cells, the Repository performed Applied Biosystems AmpFLSTR Identifiler testing with PCR amplification to confirm consistency with the published Identifier STR profile for each cell line. Cells were kept in continuous culture for no more than 20 passages. The optimal seeding densities for each of the cell lines at each time point assessed were determined prior to performing the concentration response studies. Briefly, the NCI60 human tumor lines were grown as monolayers in RPMI 1640 medium supplemented with 10% FBS and 2 mmol/L L-glutamine.
An additional 2 lines were from the NCI60 cell line panel including melanomas, MALME-3M and SK-MEL-2. Pooled donor human umbilical vein endothelial cells (HUVEC, Lonza, cat. CC-2519) and human mesenchymal stem cells (hMSC, Lonza, cat. PT-2501) were purchased from Lonza (Walkersville, MD).
PDMR cell lines were grown in complete medium (DC medium): Dulbecco's modified Eagle's medium (DMEM)/F12 supplemented with 5% fetal bovine serum (FBS), 2 mM L-glutamine, 100 U/mL penicillin and 100 µg/ml streptomycin, 0.4 µg/ml hydrocortisone, 10 ng/ml epidermal growth factor (EGF) recombinant human protein, 24 µg/mL adenine, and 0.1 mg/mL primocin. During culture from frozen stock vials, PDMR cells were cultured in the same medium containing 10 µM Y-27632 (see Table 3). The PDCs were cultured in complete DMEM/F12 media without 10 microM Y-27632 dihydrochloride for at least two passages prior to the screen. The pooled donor HUVEC and hMSC were cultured in endothelial cell growth medium 2 (PromoCell, Heidelberg, Germany, cat. C-22011) and mesenchymal stem cell growth medium 2 (PromoCell, cat. C-28009), respectively. For all experiments, HUVEC and hMSC were used at passages </=5.
For the pre-screen, cell seeding densities were determined from a titration spanning the range from 5,000 to 313 cells per well. The mct-spheroids including 60% malignant cells, 25% HUVEC and 15% MSC dispensed as a mixture into U-bottom Ultra-Low Attachment 384-well plates (Corning, NY)
High-throughput Drug Combination Screening.
Prior to their inoculation into 384-well plates, malignant cells, HUVEC, and hMSC were removed from T flasks using TrypLE express (Thermo Fisher Scientific, cat. 12605036) and harvested by centrifugation for 5 min at 233 x g. […]

[1] = curve of first compound, second compound 0.3 µM
[2] = curve of first compound, second compound 0.949 µM
[3] = curve of first compound, second compound 3 µM
[4] = curve of first compound, second compound 9.49 µM
[5] = curve of first compound, second compound 30 µM
[6] = second compound 0.3 µM, first compound 0.000316 µM
[7] = second compound 0.3 µM, first compound 0.001 µM
[8] = second compound 0.3 µM, first compound 0.00316 µM
[9] = second compound 0.3 µM, first compound 0.01 µM
[10] = second compound 0.3 µM, first compound 0.0316 µM
[11] = second compound 0.3 µM, first compound 0.1 µM
[12] = second compound 0.949 µM, first compound 0.000316 µM
[13] = second compound 0.949 µM, first compound 0.001 µM
[14] = second compound 0.949 µM, first compound 0.00316 µM
[15] = second compound 0.949 µM, first compound 0.01 µM
[16] = second compound 0.949 µM, first compound 0.0316 µM
[17] = second compound 0.949 µM, first compound 0.1 µM
[18] = second compound 3 µM, first compound 0.000316 µM
[19] = second compound 3 µM, first compound 0.001 µM
[20] = second compound 3 µM, first compound 0.00316 µM
[21] = second compound 3 µM, first compound 0.01 µM
[22] = second compound 3 µM, first compound 0.0316 µM
[23] = second compound 3 µM, first compound 0.1 µM
[24] = second compound 9.49 µM, first compound 0.000316 µM
[25] = second compound 9.49 µM, first compound 0.001 µM
[26] = second compound 9.49 µM, first compound 0.00316 µM
[27] = second compound 9.49 µM, first compound 0.01 µM
[28] = second compound 9.49 µM, first compound 0.0316 µM
[29] = second compound 9.49 µM, first compound 0.1 µM
[30] = second compound 30 µM, first compound 0.000316 µM
[31] = second compound 30 µM, first compound 0.001 µM
[32] = second compound 30 µM, first compound 0.00316 µM
[33] = second compound 30 µM, first compound 0.01 µM
[34] = second compound 30 µM, first compound 0.0316 µM
[35] = second compound 30 µM, first compound 0.1 µM

Compound: Cn1cnc2c(F)c(Nc3ccc(Br)cc3Cl)c(C(=O)NOCCO)cc21 + CC(C)NCC(C(=O)N1CCN(c2ncnc3c2C(C)CC3O)CC1)c1ccc(Cl)cc1
IC50 [1]: < 9.49 nM
IC50 [2]: < 9.49 nM
IC50 [3]: < 9.49 nM
IC50 [4]: < 9.49 nM
IC50 [5]: < 9.49 nM
viability, T/C (second compound 0.3 µM, first compound 0.00949 µM): 36.2%
viability, T/C (second compound 0.3 µM, first compound 0.03 µM): 15.6%
viability, T/C (second compound 0.3 µM, first compound 0.0949 µM): 5.04%
viability, T/C (second compound 0.3 µM, first compound 0.3 µM): 5.04%
viability, T/C (second compound 0.3 µM, first compound 0.949 µM): 2.85%
viability, T/C (second compound 0.3 µM, first compound 3 µM): 1.59%
viability, T/C (second compound 0.949 µM, first compound 0.00949 µM): 32.6%
viability, T/C (second compound 0.949 µM, first compound 0.03 µM): 12.9%
viability, T/C (second compound 0.949 µM, first compound 0.0949 µM): 4.14%
viability, T/C (second compound 0.949 µM, first compound 0.3 µM): 2.7%
viability, T/C (second compound 0.949 µM, first compound 0.949 µM): 1.73%
viability, T/C (second compound 0.949 µM, first compound 3 µM): 1.41%
viability, T/C (second compound 3 µM, first compound 0.00949 µM): 24.3%
viability, T/C (second compound 3 µM, first compound 0.03 µM): 10.2%
viability, T/C (second compound 3 µM, first compound 0.0949 µM): 2.52%
viability, T/C (second compound 3 µM, first compound 0.3 µM): 1.7%
viability, T/C (second compound 3 µM, first compound 0.949 µM): 1.41%
viability, T/C (second compound 3 µM, first compound 3 µM): 0.98%
viability, T/C (second compound 9.49 µM, first compound 0.00949 µM): 19.3%
viability, T/C (second compound 9.49 µM, first compound 0.03 µM): 9.42%
viability, T/C (second compound 9.49 µM, first compound 0.0949 µM): 2.79%
viability, T/C (second compound 9.49 µM, first compound 0.3 µM): 1.33%
viability, T/C (second compound 9.49 µM, first compound 0.949 µM): 0.9%
viability, T/C (second compound 9.49 µM, first compound 3 µM): 0.56%
viability, T/C (second compound 30 µM, first compound 0.00949 µM): 21.7%
viability, T/C (second compound 30 µM, first compound 0.03 µM): 8.51%
viability, T/C (second compound 30 µM, first compound 0.0949 µM): 2.57%
viability, T/C (second compound 30 µM, first compound 0.3 µM): 0.97%
viability, T/C (second compound 30 µM, first compound 0.949 µM): 0.37%
viability, T/C (second compound 30 µM, first compound 3 µM): 0.35%

Compound: CC(C)n1nc(-c2ccc3oc(N)nc3c2)c2c(N)ncnc21 + CC(C)NCC(C(=O)N1CCN(c2ncnc3c2C(C)CC3O)CC1)c1ccc(Cl)cc1
IC50 [1]: 29.5 nM
IC50 [2]: 10.7 nM
IC50 [3]: 3.22 nM
IC50 [4]: 1.31 nM
IC50 [5]: 0.858 nM
viability, T/C [6]: 98.6%
viability, T/C [7]: 92.4%
viability, T/C [8]: 82.1%
viability, T/C [9]: 76.8%
viability, T/C [10]: 45.8%
viability, T/C [11]: 25.5%
viability, T/C [12]: 85.6%
viability, T/C [13]: 82%
viability, T/C [14]: 58.7%
viability, T/C [15]: 55.6%
viability, T/C [16]: 33.4%
viability, T/C [17]: 19%
viability, T/C [18]: 66%
viability, T/C [19]: 62.3%
viability, T/C [20]: 48.5%
viability, T/C [21]: 37.8%
viability, T/C [22]: 27.2%
viability, T/C [23]: 12.5%
viability, T/C [24]: 56.3%
viability, T/C [25]: 54.4%
viability, T/C [26]: 42.2%
viability, T/C [27]: 34.7%
viability, T/C [28]: 25.1%
viability, T/C [29]: 13.6%
viability, T/C [30]: 52.6%
viability, T/C [31]: 51.4%
viability, T/C [32]: 41.2%
viability, T/C [33]: 32.9%
viability, T/C [34]: 20.7%
viability, T/C [35]: 9.08%

IC50 (curve of compound): 0.242 nM and 0.22 nM
Compound: CC(=O)Nc1cccc(-n2c(=O)n(C3CC3)c(=O)c3c(Nc4ccc(I)cc4F)n(C)c(=O)c(C)c32)c1
viability, T/C (compound 94.9 pM): 91% and 88.6%
viability, T/C (compound 0.0003 µM): 40.3% and 35.3%
viability, T/C (compound 0.000949 µM): 17.9% and 15.7%
viability, T/C (compound 0.003 µM): 6.38% and 5.17%
viability, T/C (compound 0.00949 µM): 3.87% and 4.14%
viability, T/C (compound 0.03 µM): 2.42% and 3.1%

IC50 (curve of compound): > 10 nM
Compound: CC(C)CC(NC(=O)C(Cc1ccccc1)NC(=O)c1cnccn1)B(O)O (centres undefined)
viability, T/C (compound 31.6 pM): 117% and 109%
viability, T/C (compound 0.0001 µM): 96.5% and 94.3%
viability, T/C (compound 0.000316 µM): 101% and 98.5%
viability, T/C (compound 0.001 µM): 113% and 109%
viability, T/C (compound 0.00316 µM): 114% and 110%
viability, T/C (compound 0.01 µM): 88.5% and 99.6%

Compound: COC1CC2CCC(C)C(O)(O2)C(=O)C(=O)N2CCCCC2C(=O)OC(C(C)CC2CCC(OCCO)C(OC)C2)CC(=O)C(C)C=C(C)C(O)C(OC)C(=O)C(C)CC(C)C=CC=CC=C1C (centres undefined) + CC(C)NCC(C(=O)N1CCN(c2ncnc3c2C(C)CC3O)CC1)c1ccc(Cl)cc1
IC50 [1]: 4.54 nM
IC50 [2]: 0.725 nM
IC50 [3]: < 0.316 nM
IC50 [4]: < 0.316 nM
IC50 [5]: < 0.316 nM
viability, T/C [6]: 72.6%
viability, T/C [7]: 60.3%
viability, T/C [8]: 48.9%
viability, T/C [9]: 49.6%
viability, T/C [10]: 45.1%
viability, T/C [11]: 42.6%
viability, T/C [12]: 58.9%
viability, T/C [13]: 47.5%
viability, T/C [14]: 39.2%
viability, T/C [15]: 38.6%
viability, T/C [16]: 37.9%
viability, T/C [17]: 36.8%
viability, T/C [18]: 45.5%
viability, T/C [19]: 37.7%
viability, T/C [20]: 27.7%
viability, T/C [21]: 27.3%
viability, T/C [22]: 30.2%
viability, T/C [23]: 28%
viability, T/C [24]: 36.7%
viability, T/C [25]: 30.7%
viability, T/C [26]: 23.2%
viability, T/C [27]: 23.6%
viability, T/C [28]: 24%
viability, T/C [29]: 21.6%
viability, T/C [30]: 30.3%
viability, T/C [31]: 27.6%
viability, T/C [32]: 20.4%
viability, T/C [33]: 19.1%
viability, T/C [34]: 22%
viability, T/C [35]: 17.9%
